These results are taken from patent publication US5739131A, “Benzene derivatives and pharmaceutical composition” (Kureha Chemical Industry Co., Ltd., priority 1994, dated 1998).

The subject of series [1] is kidney disease model rats. The series can be described thus: Action to depress blood pressure (tail cuff method). The class given is in vivo, Sprague-Dawley female rats. The settings on record: systolic, average, 20 mg/kg per os, two days from administration; control (water) 203. As for the experimental part:
The compounds of the present invention and the reference substance were forcedly administered per os to kidney disease model rats, and the action to depress blood pressure was observed. The kidney disease model rats were prepared by ligature of branches of renal artery in accordance with the conventional method, that is, the left hilum renalis of Sprague-Dawley female rats was exposed under anesthesia, and one of four secondary branches of renal artery was left unligated, while the remaining three branches were ligated, respectively. After a week, the hilum renalis (artery, vein, and ureter) of the right kidney were further ligated to thereby prepare the rats whose renal function was lowered to approximately 1/8 of the normal function. Each group consisted of eight rats. The drugs to be tested (20 mg/kg) were administered to each administering group, and only water was administered to control group. After two days from the administration, the systolic blood pressure was measured by the tail cuff method using a blood pressure measuring apparatus (UR5000; Ueda).

Series [2] has as its system kidney disease model rats. The experiment in a line: Renal function indicatory value (action to kidney diseases). The class given is in vivo, Sprague-Dawley female rats. The note with it: 20 mg/kg/day per os, two weeks; for Creatinine clearance: 24 hours urine, control 0.20; for Creatinine / Urea nitrogen: serum; for Creatinine: control 2.0; for Urea nitrogen: control 100. The method, then:
The kidney disease model rats were prepared as in Example 115. Twenty-five groups (8 rats per group) were sleeked in a manner so that there were no major differences between each group in the serum creatinine value and the urea nitrogen value indicating renal function. The rats in each group were allowed to freely take up feed and water. […] To the rats in the control group, only water was forcedly administered per os every day. After two weeks, 0.2 ml of blood was collected from the carotid artery of the rat under anesthesia, and centrifuged to obtain serum. Using 25 μl of the serum, serum creatinine (Scr) was measured by a creatinine analytical instrument (Beckman). Using 10 μl of the serum, urea nitrogen (BUN) was measured by a BUN analytical instrument (Beckman). Creatinine clearance was evaluated as follows:
After serum creatinine measurement, rats were placed in urinary metabolic cages for 24 hours to collect urine. Urinary creatine concentration (Ucr) was measured by a creatinine analytical instrument, and total volume of urination (Uvol) was also measured. Creatinine clearance (CCr) was calculated by the following formula: [formula]

The target in series [3] is T1, angiotensin II receptor subtype 1 (AT1) (Oryctolagus cuniculus, UniProt P34976).
T1 construct: receptor: from adrenal glands in rabbits; from tissue; host or cells: rabbit adrenal glands
T1 sequence (P34976 1-359): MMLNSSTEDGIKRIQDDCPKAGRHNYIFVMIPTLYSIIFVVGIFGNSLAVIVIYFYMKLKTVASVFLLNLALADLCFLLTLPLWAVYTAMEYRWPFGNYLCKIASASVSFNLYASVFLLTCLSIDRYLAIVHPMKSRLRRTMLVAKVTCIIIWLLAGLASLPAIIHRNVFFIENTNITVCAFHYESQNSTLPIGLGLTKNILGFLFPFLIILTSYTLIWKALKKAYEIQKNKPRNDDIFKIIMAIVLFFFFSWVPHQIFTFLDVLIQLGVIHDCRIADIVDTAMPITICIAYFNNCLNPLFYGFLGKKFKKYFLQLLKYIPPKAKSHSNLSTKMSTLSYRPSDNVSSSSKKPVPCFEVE
The series can be described thus: Binding assay, angiotensin II receptor subtype 1 (AT1). The settings on record: 100 μM, AT1, rabbit adrenal glands. Further details: species or system rabbit (adrenal glands). As for the experimental part:
(§1) In this Example, the affinity to the angiotensin II receptor subtype 1 or subtype 2 was evaluated by a binding assay in accordance with the method described in Biochem. Pharmacol., 33, 4057-4062 (1984).
(§2) Specifically, the measurement of the total binding in the presence of each drug was performed as follows:
(§3) A mixture (final volume=0.25 ml) of a drug in a given concentration (the drug was dissolved in DMSO, and diluted to a double volume with a buffer attached to a drug discovery system to prepare sample for the assay; 0.025 ml), a tracer (0.025 ml), and receptors (0.2 ml) was incubated [in the case of the angiotensin II receptor subtype 1 (AT1), at room temperature for 3 hours, and in the case of the subtype 2 (AT2), at 37° C. for 1 hour]. Then, the reaction mixture was filtered with suction (GF/C filter was used in AT1, and GF/B filter was used in AT2). The filter papers after filtration with suction (the tracer bound to the receptors) were counted by a γ-well counter (ARC-500, Aloka). The non-specific bindings were measured by repeating the above method, except that a large excess amount of a displacer was added. The specific binding of the drug in the given concentration was calculated by subtracting the non-specific binding from the total binding, respectively.
(§4) In AT1 and AT2, the percentages to inhibit the bindings of radioactive ligands (tracer) to receptors by the drugs to be tested (IC50 value of concentration to show 50% inhibition, or binding inhibition % in 100 μM) were measured, using the drugs to be tested and control drugs in the given concentration.

Series [4] has as its system kidney disease model rats. The series can be described thus: Action to survival time of kidney diseased animals. The class given is in vivo, Sprague-Dawley female rats. The settings on record: 20 mg/kg/day per os, observation eight weeks (upper limit); control 5.0. As for the experimental part: The kidney disease model rats were prepared as in Example 115. Twenty-five groups (8 rats per group) were prepared in a manner so that there was no major difference between the groups in the serum creatinine value and the urea nitrogen value indicating renal function. The rats in each group were allowed to freely take up feed and water. […] To the rats in the control group, only water was forcedly administered per os every day. If kidney diseases are aggravated, the rat will die of uremia. Thus, the survival time was observed as comprehensive indication of the improvement effect on the kidney diseases. The observation period was eight weeks. Thus if all rats survived, the average survival time is eight weeks and it is an upper limit.

Series [5] has as its target T2, angiotensin II receptor subtype 2 (AT2) (Bos taurus, UniProt G5E6F7).
T2 construct: receptor: from cerebellar cortex in bovine; from tissue; host or cells: bovine cerebellar cortex
T2 sequence (G5E6F7 1-362): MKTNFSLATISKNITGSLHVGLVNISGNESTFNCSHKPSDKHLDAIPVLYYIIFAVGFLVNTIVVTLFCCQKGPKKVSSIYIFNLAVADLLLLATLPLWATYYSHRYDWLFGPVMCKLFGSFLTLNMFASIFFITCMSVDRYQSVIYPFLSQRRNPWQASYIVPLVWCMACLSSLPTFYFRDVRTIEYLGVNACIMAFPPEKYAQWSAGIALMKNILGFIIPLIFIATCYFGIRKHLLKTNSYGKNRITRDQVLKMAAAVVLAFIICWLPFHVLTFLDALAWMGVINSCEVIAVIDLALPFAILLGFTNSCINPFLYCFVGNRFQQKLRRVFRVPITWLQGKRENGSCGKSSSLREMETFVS
The experiment in a line: Binding assay, angiotensin II receptor subtype 2 (AT2). Further details: species or system bovine (cerebellar cortex). The settings on record: 100 μM, AT2, bovine cerebellar cortex, 37° C. 1 hour; read-out: Binding inhibition % in 100 μm, AT2. As for the experimental part: as §1, §2, §3, §4
receptor: from cerebellar cortex in bovine
tracer: ^125 ITyr^4angiotensin II
control drug: angiotensin II (human)
(displacer): angiotensin II (human)

In the next series the test system is mice. The series can be described thus: Acute toxicity, single oral dose. The format is in vivo. As for the experimental part:
Five-week-old ICR female mice (5 mice per group) were bred for acclimation for a week. Then, the compounds of the present invention were dissolved or dispersed in an aqueous solution of 0.5% methylcellulose, and orally administered to the mice in a single dosage (500 mg/kg).

In series [1], `CCCCC(=O)Nc1ccc(C(=O)N2CCOCC2)cc1NCc1ccc(C(=O)O)cc1` [Compound No. 1, 3-[(4-carboxyphenyl)methylamino]4-valeramidobenzoic acid morpholide] showed a Blood pressure of 196 mmHg. In series [2], the Creatinine clearance came to 0.34 mL/min, the Creatinine came out at 1.6 mg/dL and the Urea nitrogen was 75 mg/dL. The compound further displayed an inhibition at 100 µM in series [3] of 33%. Besides, the Average survival time in series [4] was 7.1 weeks. Besides, the inhibition at 100 µM in series [5] was 0%. In the series on mice (mice, single oral 500 mg/kg, observed for 6 days, 5 per group), the “Number of deaths/number of survivals” value is reported as 0/5.

Take `CCCCCN(C)c1ccc(C(=O)N2CCOCC2)cc1NCc1ccc(C(=O)O)cc1` [Compound No. 41, 4-(N-n-amyl-N-methyl)amino-3-[(4-carboxyphenyl)methyl]aminobenzoic acid morpholide]: the Blood pressure in series [1] came out at 195 mmHg. Besides, in series [2], the Creatinine clearance turned out to be 0.36 mL/min, the Creatinine turned out to be 1.6 mg/dL and the Urea nitrogen stood at 72 mg/dL. The same compound registered an inhibition at 100 µM in series [3] of 26%. Further, the Average survival time in series [4] turned out to be 7.6 weeks. For the same compound, the inhibition at 100 µM in series [5] amounted to 0%. In the series with mice (mouse, in vivo, po, 500 mg/kg), the “Number of deaths/number of survivals” value is 0/5.

With `CCCCCCc1ccc(C(=O)N2CCOCC2)cc1NCc1ccc(C(=O)O)cc1` [Compound No. 75, 3-[(4-carboxyphenyl)methyl]amino-4-hexylbenzoic acid morpholide], the inhibition at 100 µM in series [3] is 15%; in series [5], 0%.

`CCCCC(=O)N(Cc1ccc(C(=O)O)cc1)c1cccc(C(=O)N2CCOCC2)c1` [Compound No. 90, 3-[N-(4-carboxyphenyl)methyl]valeramidobenzoic acid morpholide]: the Blood pressure in series [1] amounted to 194 mmHg. In series [2], this compound came in with a Creatinine clearance of 0.38 mL/min, a Creatinine of 1.5 mg/dL and a Urea nitrogen of 70 mg/dL. This compound also yielded an inhibition at 100 µM in series [3] of 30%. This compound returned an Average survival time in series [4] of 7.6 weeks. In series [5], the inhibition at 100 µM stood at 0%. Also, the “Number of deaths/number of survivals” value with mice (mouse, in vivo, po, 500 mg/kg) was 0/5.

On to `CCCCCN(Cc1ccc(C(=O)O)cc1)c1cccc(C(=O)N2CCOCC2)c1` [Compound No. 158, 3-[N-(4-carboxyphenyl)methyl]-n-amylaminobenzoic acid morpholide], for which, in series [1], the Blood pressure amounted to 190 mmHg. In series [2], this compound returned a Creatinine clearance of 0.37 mL/min, a Creatinine of 1.7 mg/dL and a Urea nitrogen of 74 mg/dL. This compound displayed an inhibition at 100 µM in series [3] of 18%. This compound also displayed an Average survival time in series [4] of 7.2 weeks. Further, in series [5], the inhibition at 100 µM stood at 0%. Moreover, in the series on mice (mouse, in vivo, po, 500 mg/kg), the “Number of deaths/number of survivals” value was 0/5.

`CCCCC(=O)N(Cc1ccc(C(=O)O)cc1)c1cc(C(=O)N2CCOCC2)ccc1N(C)C` [Compound No. 184, 3-N-[[(4-carboxyphenyl)methyl]valeramido]-4-dimethylaminobenzoic acid morpholide] yielded a Blood pressure in series [1] of 195 mmHg. In series [2], this compound gave a Creatinine clearance of 0.38 mL/min, a Creatinine of 1.5 mg/dL and a Urea nitrogen of 70 mg/dL. This compound also yielded an inhibition at 100 µM in series [3] of 0%. Also, in series [4], the Average survival time is 7.6 weeks. Also, the inhibition at 100 µM in series [5] came to 0%. Also, the “Number of deaths/number of survivals” value in the series on mice (mouse, in vivo, po, 500 mg/kg) is given as 0/5.

The compound `CCCNC(=O)N(Cc1ccc(C(=O)O)cc1)c1cc(C(=O)N2CCOCC2)ccc1N(C)C` [Compound No. 225] registered a Blood pressure in series [1] of 195 mmHg. Besides, in series [2], the Creatinine clearance was determined as 0.25 mL/min, the Creatinine came out at 1.8 mg/dL and the Urea nitrogen was 73 mg/dL. Further, the inhibition at 100 µM in series [3] turned out to be 4%. Further, in series [4], the Average survival time worked out at 7.0 weeks. Besides, in series [5], the inhibition at 100 µM stood at 0%. In addition, the “Number of deaths/number of survivals” value in the series with mice (mouse, in vivo, po, 500 mg/kg) is reported as 0/5.

As to `CCCCCN(Cc1ccc(C(=O)O)cc1)c1cc(C(=O)N2CCOCC2)ccc1N(C)C` [Compound No. 252, 4-dimethylamino-3-[N-(4-carboxyphenyl)methyl]-n-amylaminobenzoic acid morpholide], the Blood pressure in series [1] was 200 mmHg. Also, in series [2], the Creatinine clearance is 0.28 mL/min, the Creatinine was 1.7 mg/dL and the Urea nitrogen turned out to be 73 mg/dL. Moreover, testing at 100 µM in series [3] gave an inhibition of 34%. In addition, the Average survival time in series [4] amounted to 7.0 weeks. Further, the inhibition at 100 µM in series [5] stood at 0%. Besides, in the series on mice (mouse, in vivo, po, 500 mg/kg), the “Number of deaths/number of survivals” value is 0/5.

With `CCCCC(=O)N(Cc1ccc(C(=O)O)cc1)c1cc(S(=O)(=O)N2CCOCC2)ccc1N(C)C` [Compound No. 597, 4-[[3-N-[(4-carboxyphenyl)methyl]valeramido-4-dimethylaminobenzene]sulfonyl]morpholine], the inhibition at 100 µM in series [3] and in series [5] was 0% throughout.

Usually inhibition stands for how much of the control response was suppressed.
